From patent publication US10814612B2, “Use of thiazolide compounds for the prevention and treatment of viral diseases, cancer and diseases caused by intracellular infections” (priority 2011, dated 2020)
Like-named read-outs stand apart in the source and are kept apart here.

How the values were obtained:
[1] = test system: Toll-Like Receptor signalling pathway; assay: TLR pathway Real-time PCR array (84 genes) in PBMC; assay type: cell-based, human; conditions: 3 hours
CD14+ cells (monocytes) = assay type: cell-based, human
[2] = test system: Type I interferon signalling pathway; assay: Type I interferon pathway Real-time PCR array (84 genes) in PBMC; assay type: cell-based, human
CD4+ T cells = assay: T helper functions: IFNγ- and IL2-secreting CD4+ T cells; assay type: cell-based, human; conditions: for IFN-γ production by CD4+ T cells: 0.5 μg/ml
CD8+ T cells = assay: CTL activity: perforin-, granzyme- and Fas-expressing CD8+ T cells; assay type: cell-based, human; conditions: for percentage of Fas-expressing CD8+ T cells: 20 and 40 μg/ml
[3] = test system: RNA and DNA viruses including influenza A and hepatitis C viruses; conditions: cited from earlier work
[4] = test system: rotavirus gastroenteritis, norovirus gastroenteritis and chronic hepatitis C; conditions: clinical trials; cited from earlier work
[5] = humans, cited from earlier work
[6] = flu-stimulated PBMC, all doses tested
[7] = all five doses, unstimulated and flu-stimulated
[8] = flu-stimulated PBMC, 3 hours, 1 μg/ml
[9] = after oral nitazoxanide or nitazoxanide plus tizoxanide
[10] = PMBCs, TIZ 0.5, 1.0 and 10 mg/ml, FIG. 3A

In the case of `O=C(Nc1ncc(Cl)s1)c1ccccc1O` [RM-4848, N-(5-chlorothiazol-2-yl)-2-hydroxybenzamide], the “INFA1 mRNA fold increase” value ([1]; flu-stimulated PBMC, 1 μg/ml) is reported as roughly 6 fold, the “INFB1 mRNA fold increase” value ([1]; flu-stimulated PBMC, 1 μg/ml) is reported as roughly 6 fold and the “TLR3 mRNA fold increase” value ([1]; flu-stimulated PBMC, 1 μg/ml) is reported as roughly 7 fold. The “TLR5 mRNA fold increase” value ([1]; flu-stimulated PBMC, 1 μg/ml) was roughly 7 fold, the “TLR9 mRNA fold increase” value ([1]; flu-stimulated PBMC, 20 μg/ml) was roughly 6 fold and the “TLR8 mRNA fold change” value [1, 6] was greater than 2 fold. The “TLR-7 mRNA fold change” value [1, 6] was greater than 2 fold, the “IL1A mRNA fold increase” value ([1]; un-stimulated PBMC, 20 μg/ml) was roughly 5 fold and the “IL1B mRNA fold increase” value ([1]; un-stimulated PBMC, 20 μg/ml) was roughly 5 fold. The “IL6 mRNA fold increase” value ([1]; un-stimulated PBMC, 20 μg/ml) was roughly 6 fold, the “TLR3-expressing CD14+ cells” value (CD14+ cells (monocytes); [7]) was “no effect” and the “TLR8-expressing CD14+ cells” value (CD14+ cells (monocytes); [7]) was “no effect”. The “percentage of TLR7-expressing CD14+ cells compared to control” value (CD14+ cells (monocytes); flu-antigenic stimulation, 1.0 μg/ml dose: p=0.001, 10 μg/ml dose: p=0.023) was “increase”, the “percentage of TLR7-expressing CD14+ cells compared to control” value (CD14+ cells (monocytes); unstimulation condition) was “no significative differences” and the “IFI27 mRNA fold increase” value ([2]; flu-stimulated PBMC, 10 μg/ml) was greater than 4 fold. For the same molecule, the “IFIT1 mRNA fold increase” value ([2]; flu-stimulated PBMC, 10 μg/ml) was greater than 4 fold, the “IFNA2 mRNA fold increase” value [2, 8] was 6 fold and the “INFA1 mRNA fold increase” value [2, 8] was 10 fold. For the same molecule, the “INFA4 mRNA fold increase” value [2, 8] was 10 fold, the “INFB1 mRNA fold increase” value [2, 8] was 8 fold and the “expression of the ISGs, IFI27 and IFIT1” value ([2]; flu-stimulated PBMC, the three dose levels (1, 10, 20 μg/ml)) was “moderately up-regulated”. The “Type I IFN inducible genes (CD70, COL16A1, HSPA1L, IFI27, IFIT1, NRG1 and SHB)” value ([2]; summary of Examples 4-8) was “upregulated”, the “INFA1 mRNA fold decrease” value ([2]; un-stimulated PBMC, 20 μg/ml) was 20 fold and the “INFA2 mRNA fold decrease” value ([2]; un-stimulated PBMC, 20 μg/ml) was 15 fold. For the same molecule, the “INFA4 mRNA fold decrease” value ([2]; un-stimulated PBMC, 20 μg/ml) was 10 fold, the “INFB1 mRNA fold decrease” value ([2]; un-stimulated PBMC, 20 μg/ml) was 15 fold and the “down-regulating effects on interferon genes” value ([2]; un-stimulated PBMC, two lower doses of 1 and 10 μg/ml) was “not seen”. For the same molecule, the “IFN-γ production by CD4+ T cells” value (CD4+ T cells; Flu-stimulated conditions, p=0.050) was “statistically significant upregulation”, the “IFN-γ production by CD4+ T cells” value (CD4+ T cells; un-stimulated cells, p=0.035) was “statistically significant upregulation” and the “percentage of Fas-expressing CD8+ T cells” value (CD8+ T cells; Flu-stimulated, p=0.003) was “statistically significantly increased”. For the same molecule, the “degranulation of CTLs, evaluated by reduction in perforin expression” value (CD8+ T cells; three higher dose levels tested) was “induced a degranulation” and the “percentage of Fas-expressing CD8+ T cells” value (CD8+ T cells; un-stimulated, p=0.006) was “statistically significantly increased”.

In the case of `CC(=O)Oc1ccccc1C(=O)Nc1ncc([N+](=O)[O-])s1` [Nitazoxanide, 2-(acetolyloxy)-N-(5-nitro-2-thiazolyl) benzamide], the “replication of RNA and DNA viruses including influenza A and hepatitis C viruses” value [3] is given as “inhibit replication”, the “effectiveness in treating chronic hepatitis C” value [4] is given as “effective” and the “effectiveness in treating norovirus gastroenteritis” value [4] is given as “effective”. The “effectiveness in treating rotavirus gastroenteritis” value [4] was “effective”.

In the case of `O=C(Nc1ncc([N+](=O)[O-])s1)c1ccccc1O` [Tizoxanide], the “replication of RNA and DNA viruses including influenza A and hepatitis C viruses” value [3] is listed as “inhibit replication”, the “TLR3- expression on monocytes” value (CD14+ cells (monocytes)) is listed as “increase” and the “TLR7- expression on monocytes” value (CD14+ cells (monocytes)) is listed as “increase”. For the same molecule, the “TLR8- expression on monocytes” value (CD14+ cells (monocytes)) was “increase”, the half-life in plasma [5, 9] was “approximately 1.5 hours” and the urinary elimination half-life [5, 9] was 7.3 h. The plasma protein binding [5] was “bound to plasma proteins”, the IFNα-mRNA expression [2, 10] was “increase” and the IFNβ-mRNA expression [2, 10] was “increase”. The “mRNA specific for type I IFN inducible genes (MXA, PRKCZ, ADAR, CXCL10, IRF1, PRKRA)” value ([2]; PMBCs, TIZ 0.5, 1.0 and 10 mg/ml, FIG. 3B) was “increase”, the “mRNA specific for gene involved in MHC class I presentation (HLA-A, HLA-B, TAP1)” value ([2]; PMBCs, TIZ 0.5, 1.0 and 10 mg/ml, FIG. 3C) was “increase” and the “IFNγ-secreting CD4+ T cells” value (CD4+ T cells; PMBCs, TIZ 0.5, 1.0 and 10 mg/ml, unstimulated and flu-stimulated, FIG. 4A) was “increase”. The “IL2-secreting CD4+ T cells” value (CD4+ T cells; PMBCs, TIZ 0.5, 1.0 and 10 mg/ml, unstimulated and flu-stimulated, FIG. 4B) was “increase”, the CTL degranulation (CD8+ T cells; PMBCs, TIZ 0.5, 1.0 and 10 mg/ml, FIG. 5B) was “increase” and the “Fas-expressing CD8+ T cells” value (CD8+ T cells; PMBCs, TIZ 0.5, 1.0 and 10 mg/ml, FIG. 5C) was “increase”.
